# Results reported in patent US20260240975A1, “VALIDATED HPV16-DERIVED S[…]” (Deutsches Krebsforschungszentrum Stiftung des öffentlichen …, priority 2023, published 2026).
# Read-outs that look alike come from different tables or passages of the source. No end group written: not given here.
# Columns and labels:
# [1] = tested on: short-term antigen-specific T cell lines generated from PBMCs; assay: Interferon-γ ELISpot assay on short-term T cell lines; type: cell-based, human; parameters: key: +: ELISPOT: Immungenicity of the peptide shown by IFN-gamma ELISPOT analysis; * Highlights data from published resources; +*: * Highlights data from published resources
# [2] = tested on: short-term antigen-specific T cell lines generated from PBMCs; parameters: key: +: ELISPOT: Immungenicity of the peptide shown by IFN-gamma ELISPOT analysis; * Highlights data from published resources; +*: * Highlights data from published resources; conditions: marked * (published resources), cited from earlier work
# HPV16-positive cells = assay: Cytotoxicity assay (VITAL FR / live-cell imaging) with peptide-specific CD8+ T cells; type: cell-based, human; parameters: key: +: cytotox: Ability of peptide-specific T cells to kill HPV16-positive cells
# Experimental: The flow cytometry based VITAL FR cytotoxicity assay was used as published by Stanke et al. (Stanke et al., 2010) to assess whether peptide-specific T cells are able to specifically kill HPV-transformed target cells. Briefly, two HLA-A2^+ cell lines, a HPV16-negative (HPV16^−) control cell line (C33A) and a HPV16-positive (HPV16^+) target cell line (CaSki) were fluorescently labeled with either FarRed or CFSE and were co-incubated with peptide-specific CD8^+ T cells as effector cells. After 48 h co-incubation, the fluorescently labeled cells were analyzed by flow cytometry to determine the surviving cells and calculate the specific cytolytic function of the effector cells by the ratio of target and control cells.
# CaSki and C33A cells were fluorescently labeled with CFSE and FarRed, respectively. Cells of both cell lines were harvested and resuspended in plain RPMI medium at a concentration of 1×10^6 cells/mL. For cell labeling, 5 μM CSFE were added to CaSki cells and 0.25 μM FarRed were added to C33A cells. The cells were incubated at 37° C. and the reaction was stopped after 10 min by addition of 50 mL RPMI with 10% FBS. The cells were centrifuged at 300 xg for 5 min, the supernatant was discarded and the cells were resuspended in their cell culture medium. The labeled cells were seeded in T25 cell culture flasks with 1-2×10^6 cells/flask.
# On the next day, the labeled CaSki and C33A as well as the epitope-specific semi-long-term T cell lines (described in 1.6) were harvested. CD8^+ T cells were isolated from the epitope-specific semi-long-term T cell lines using the MACS CD8^+ T cell isolation kit (Miltenyi Biotec) according to the manufacturer's protocol for LS columns. The CD8^+ T cells were resuspended in T cell medium and added to wells of a F-bottom 96-well plate in serial dilutions to achieve triplicates of 6×10^4, 3×10^4, 1.5×10^4, 0.75×10^4 and 0.375×10^4 cells per well. The CaSki and C33A cells were mixed 1:1 in T cell medium and 3×10^3 cells were added to each well containing T cells. Thereby effector:target (E:T) ratios of […] were achieved. Additionally, triplicates of mixed target cells without T cells were seeded, which is referred to as E:T 0. After 48 h incubation at 37° C., 5% CO2, the cells were harvested and analyzed at a BD FACS Canto™ II analyzer using the BD FACS Diva Software Version 6. The obtained data were analyzed with the FlowJo software Version 10 by applying the same gating strategy to all samples. Subsequently, the equations (1) and (2) given below were applied in Excel (Microsoft Office 2016) to calculate specific killing.
# Semi long-term T cell lines were set up to obtain high numbers of T cells, which are required for the analysis of epitope specific cytotoxic T cell responses in VITAL FR cytotoxicity assays. Autologous DCs were generated from PBMCs as described in 1.7 and loaded with the desired HPV16 peptide. PBMCs of the same donor were thawed and resuspended in T cell medium supplemented with rhIL-7 (10 ng/mL) and rhIL-15 (20 ng/mL). 1×10^7 PBMCs/well were seeded to a 24-well plate in a total volume of 1 mL/well. Peptide-loaded DCs were added in a ratio of 50:1 (PBMCs:DCs) in 1 mL rhIL-7 (10 ng/mL) and rhIL-15 (20 ng/mL) supplemented T cell medium to achieve a final volume of 2 mL. The cell cultures were fed with rhIL-2 (final concentration: 40 U/mL) every other day. If the medium turned yellow the feeding was combined with a half medium change with 1 mL fresh IL-2 supplemented T cell medium. After eight days, the peptide stimulation with peptide-loaded DCs was repeated and cultivation was continued. On day 15, the T cell lines were harvested and used for CD8^+ T cell isolation and cytotoxicity assays.
# In addition to the VITAL FR assay described herein above, a newly established live-cell imaging-based cytotoxicity assay was applied. […]
# [3] = tested on: peptide-specific T cell cultures; assay: T cell phenotyping and intracellular cytokine staining (flow cytometry); type: cell-based, human; parameters: key: +: cytokine: Immunogenicity of the peptide shown by intracellular cytokine staining (IFN-gamma, TNF-alpha); conditions: IFN-gamma, TNF-alpha
substance,measurement,setting,value
61 (RAHYNIVTF; Human papillomavirus 16) [compound 61],ELISpot,[1]; HLA restriction B15,+
same,ELISpot,[2]; HLA restriction B07,+*
34 (CVYCKQQLLR; Human papillomavirus 16) [compound 34],ELISpot,[1]; HLA restriction A03,+
same,ELISpot,[2]; HLA restriction A11,*
MGTLGIVCPI [compound 14],cytotox,HPV16-positive cells; HLA restriction A02,+
IRTLEDLLMGT [compound 33],cytotox,HPV16-positive cells; HLA restriction A02,+
77 (TPTLHEYML; Human papillomavirus 16) [compound 77],ELISpot,[2]; HLA restriction B07,*
1 (ISEYRHYCY; Human papillomavirus 16) [compound 1],ELISpot,[2]; HLA restriction A01,+*
LLMGTLGIVCP [compound 25],cytotox,HPV16-positive cells; HLA restriction A02,+
TTIHDIILECV [compound 30],cytotox,HPV16-positive cells; HLA restriction A02,+
62 (TFCCKCDSTL; Human papillomavirus 16) [compound 62],ELISpot,[1]; HLA restriction A24,+
same,cytotox,HPV16-positive cells; HLA restriction A24,+
2 (HGDTPTLHEY; Human papillomavirus 16) [compound 2],ELISpot,[2]; HLA restriction A01,+*
43 (AVCDKCLKFY; Human papillomavirus 16) [compound 43],ELISpot,[1]; HLA restriction A03,+
same,ELISpot,[1]; HLA restriction B15,+
same,ELISpot,[2]; HLA restriction A11,+*
same,cytokine,[3]; HLA restriction A03,+
same,cytokine,[3]; HLA restriction A11,+
same,cytokine,[3]; HLA restriction B15,+
YMLDLQPE [compound 13],cytotox,HPV16-positive cells; HLA restriction A02,+
LMGTLGIVCPI [compound 12],cytotox,HPV16-positive cells; HLA restriction A02,+
87 (LQPETTDLY; Human papillomavirus 16) [compound 87],ELISpot,[2]; HLA restriction B15,+*
same,cytokine,[3]; HLA restriction B15,+
RLCVQSTHV [compound 11],cytotox,HPV16-positive cells; HLA restriction A02,+
